Tests used:
HIV = conditions: natural products; reported previously, ref [10a]; cited from earlier work
HIV RT RNaseH = assay type: binding, HIV-1; conditions: natural product

Compound | Cell-Based Assays Antiviral EC50 (HIV) | HIV RT RNaseH Assays ThermoFluor ΔTm (HIV RT RNaseH) [°C]
CC(C)c1ccc(O)c(=O)c(O)c1 [β-thujaplicinol] | n.p. (‘n.p.’ indicates no protective effects (<35% cell viability throughout assay)) | 2.34
manicol | n.p. (‘n.p.’ indicates no protective effects (<35% cell viability throughout assay)) | 

Reference: article PMC5228208 (MedChemComm, 2016)
